Assays:
β-amyloid (1-40) fibrils = target: T1, β-amyloid (1-40) fibrils (Homo sapiens, UniProt P05067); assay: In vitro competition assay with [18F]FDDNP on synthetic β-amyloid (1-40) fibrils (vacuum filtration); assay type: binding; settings: for Ki: synthetic β-amyloid (1-40) fibrils, 1 h, PBS pH 7.4, ±SD, read-out: Ki (decrease in the binding of [18F]FDDNP); for dose dependent decrease in the specific binding of [18F]FDDNP: 0.1 pM to 83 μM of nonradioactive agent
T1 construct: β-amyloid (1-40) (Biosource, Camarillo, Calif.) fibrils were prepared; purchased Biosource, Camarillo, Calif; host or cells: synthetic peptide
T1 sequence (P05067 672-711 limits assumed): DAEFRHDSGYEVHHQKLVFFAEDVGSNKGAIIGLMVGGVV
Method: Potential therapeutic agents were evaluated to determine their ability to bind to β-amyloid fibrils. • Amyloid (1-40) fibril formation. β-amyloid (1-40) (Biosource, Camarillo, Calif.) fibrils were prepared. 0.5 mg of β-amyloid (1-40) was dissolved in 1 mL PBS, pH 7.4 and mixed with a magnetic stir bar for 3 days at 37° C. resulting in a visibly cloudy solution. Fibrils were used immediately after their production was confirmed. The production of 13-amyloid fibrils was confirmed by imaging with a Jeol 100CX transmission electron microscope (Jeol, Peabody, Mass.). A 5 μL drop from a fibril solution was allowed to settle for 30 s on a treated copper grid before being washed away with a drop of 2% uranyl acetate solution. Finally, an additional drop of 2% uranyl acetate was added to the grid to negatively stain the fibrils. Fibrils were used immediately after their production was confirmed. Additional tests for fibril formation using Congo red (CR, Sigma) and Thioflavine T (TT, Sigma) were performed, as well. The absence of fibrils in the filtrate in the in vitro competition assays described below was determined by the same tests using CR. In vitro competition assays with [^18[…] against NSAIDs and charge amyloid dyes. Solutions of nonradioactive agents, namely (S)-naproxen (Sigma), (R)-ibuprofen (BIOMOL, Plymouth Meeting, Pa.), (S)-ibuprofen (Sigma), diclofenac (Sigma), CR and TT, were prepared fresh for each radioactive competition assay. APFF glass fiber filters (0.7 μm particle retention; Millipore, Bedford, Mass.) were used in a 1225 sampling manifold (Millipore) that was modified with stainless steel support screens (Millipore) and glass sample chambers. Vacuum filtration involved 0.865 μg/mL of in vitro fibrils of synthetic β-amyloid (1-40) and 37 MBq/mL of [^18[…] incubated for 1 h in PBS, pH 7.4 (1% ethanol) with various concentrations of the nonradioactive agents with the range of 0.1 pM to 83 μM. Each filter was then washed twice with 3 ml of PBS, pH 7.4. The radioactivity retained by the filters was measured and decay-corrected to a common reference time with a Packard Cobra II Auto-Gamma gamma counter (Packard, Meriden, Conn.). […] All competition assays were performed in triplicate. Competition results were analyzed and then Ki values calculated using the Ligand Binding Module for SigmaPlot 2001 (SPSS, Chicago, Ill.).

senile plaques = assay: Digital autoradiography with [18F]FDDNP of AD brain specimens pretreated with nonradioactive agents; assay type: binding, human
Method: Brain specimens from a postmortem-diagnosed definite AD patient were treated. Briefly, formalin-treated, cryoprotected brain specimens were sectioned 70 μm thick coronally mounted on gelatine-coated glass slides, allowed to dry, and were defatted for 40 min in xylene prior to rinsing of the tissue with ethanol. Finally, lipofuscin autofluorescence in some brain specimens was quenched prior to staining using 10 mM CuCl2 in 50 mM ammonium acetate buffer, pH 5. The quenching determined the origin of lipofuscin fluorescence in brain specimens. […] Pretreated and cryosections with no competitor were incubated for 25 min at room temperature with […] of [^18[…] dissolved in 10 mL of 1% ethanol in 0.9% saline (w/v) per cryosection. Following incubation, the sections were optimally washed with water (30 sec); 60% 2-methyl-2-butanol (3 min; Sigma) agitated at 40 RPMs on a Junior Orbit Shaker (Lab-Line Instruments, Melrose Park, Ill.) for differentiation (Bancroft and Stevens, 1990); and then water (30 sec). The sections were dried on a warm hot plate with a steady stream of warm air, exposed to β^+-sensitive phosphor plates for 40 min Fuji Film Medical Systems USA, Stamford, Conn.), and scanned with a FUJI BAS 5000 Phosphorimager (Fuji) at a resolution of 25 μm, as described previously ([…] et al., 2001a). […] FIG. 2Q) in the autoradiograms. Autoradiography was carried out at least in triplicate for each competitor. Statistical analysis of the autoradiograms involved one-way ANOVA with Dunnett's post test using Prism 3.02 (GraphPad, San Diego, Calif.) to compare the differences in the ratio of gray matter-to-white matter (FIG. 2Q) radioactivity of [^18]FDDNP in autoradiograms pretreated with the nonradioactive agents and without pretreatment. Unpaired t-tests were performed to compare the difference of measured [^18[…] radioactivity per area of tissue (Bq/mm^2) in the gray and white matter of each autoradiogram. The same brain specimens used for autoradiography were observed using fluorescence microscopy. Tissues were mounted with Vectashield (Vector, Burlingame, Calif.) and observed with a Nikon Labophot fluorescence microscope (Nikon USA, Melville, N.Y.) with a FITC filter set.

amyloid plaques = settings: cited from earlier work
[1] = tested on: neurofibrillary tangles, amyloid peptides, and diffuse amyloid; assay: In vitro fluorescence labeling of Alzheimer's disease brain specimens with DDNP and [F-18]FDDNP; design: species or system human; settings: all Alzheimer's disease brain specimens
[2] = target: T2, β-amyloid 1-40 injected into rat cortex (Homo sapiens, UniProt P05067); assay: DDNP labeling of β-amyloid injected into rat brain in vivo; settings: rats, FIGS. 2A to 2E
T2 construct: unilateral stereotaxic injection of 3 μg of aggregated β-amyloid 1-40 into rat cortex; host or cells: exogenous peptide fibrils injected into rat brain
T2 sequence (P05067 672-711 limits assumed): as above
Method: β-amyloid 250 μM (1.25 mg/mL in distilled water) was aggregated at 37° C. for 48 hours to produce fibrils confirmed by smears. Three rats were anesthetized. 3 μL of a solution of Aβ fibrils (1.25 μg/μL) were injected unilaterally into the cortex of each rat (Bregma 0, AP-4.1 mm, ML+2.0 mm, DV-3.1 mm). Then 3 μL of phosphate buffered saline (PBS) were injected into the contralateral side of each rat brain as a vehicle control. After injection, the needle remained for 5 minutes to prevent reflux, and then the cranial hole was sealed with bone wax. Eight days after β-amyloid injection into the rat brains, the rats were injected with 10 microliters of DDNP working solution (320 micromolar) prepared by diluting DDNP stock solution into 1.5% BSA (bovine serum albumin) in phosphate buffered saline, pH 7.2).
After one hour, the rats were cardiac perfused with PLP fixative (4% paraformaldehyde, 1% lysin in 0.05 M phosphate buffer, pH 7.4). Additional immersion fixation of rat brain was at 4° C. overnight with PLP fixative. The rat brains were washed with PBS, saturated in 10 and 20% sucrose, and snap frozen in chilled isopentane (−70° C.) with liquid nitrogen. The brains were cryostat sectioned at […] around the needle-track and directly coverslipped with glycerol and fluorescence protectant (Vectashield™).

[3] = Storage of DDNP stock solution; assay type: physicochemical; settings: 8 mM in 100% ethanol, freezer; used at 1/100 to 1/1,000 dilutions
Method: (§1) A 2.1 mg/mL DDNP stock solution was prepared, which was adjusted to 8 mM in 100% ethanol. A DDNP working solution was prepared by diluting the stock solution with distilled water in a ratio of 1:100-1000 (stock solution:distilled water).

[4] = tested on: amyloid plaques and tangles; assay: DDNP fluorescence labeling of brain tissue sections in vitro; design: species or system human
Method: as §1
β-amyloid 250 μM (1.25 mg/mL in distilled water) was aggregated at 37° C. for 48 hours. 5 μL were smeared on slides, air-dried and then rehydrated with distilled water. Alternatively, Aβ-positive brain tissue sections were rehydrated with distilled water. DDNP working solution was applied to each slide for 30 minutes at room temperature. The slides were washed three times for five minutes with distilled water. The slides were coverslipped with fluorescent protectant mounding media (Vectashield™, available Vector Labs., Burlingame, Calif.) and observed under a fluorescence microscope with a thioflavin S or FITC filter.

[5] = tested on: β-amyloid plaques and neurofibrillary tangles; assay: PET with [F-18]FDDNP in patients; assay type: in vivo, human
Method: A patient was placed in a tomograph to obtain brain dynamic PET images. 8.0 mCi of 2-(1.1-dicyanopropen-2-yl)-6-(2-[^18F]-fluoroethyl)-methylamino)-naphthalene ([F18]FDDNP) (specific activity: 5-12 Ci/micromol; mass: ˜1 nanomol), prepared as described in Example 1(f), were injected intravenously into the arm of the patient. Dynamic acquisition data of brain images were recorded simultaneously in forty-seven brain planes for two hours.
Labeling and detection of human β-amyloid plaques and neurofibrillary tangles in vivo were conducted using the following procedures. Ten human subjects, seven Alzheimer's diseased patients (ages 71 to 80) and three control patients (ages 62 to 82) were studied. The patients were positioned supine in an EXACT HR+962 tomograph (Siemens-CTI, Knoxville, Tenn.) with the imaging plane parallel to the orbito-meatal line. Venous catheterization was performed, and then [F-18]FDDNP (5-10 mCi) in human serum albumin (25%) was administered as a bolus via the venous catheter. Sequential emission scans were obtained beginning immediately after [F-18]FDDNP administration using the following scan sequence: six 30 second scans, four 3 minute scans, five 10 minute scans, and three 20 minute scans. Rapid venous blood sampling was performed via the indwelling catheter in two subjects for input function determination and plasma metabolite analysis.
The residence time shown is in reference to that in the pons, an area known to have limited involvement in Alzheimer's disease pathology. The residence time was calculated from the clearance rates of the tracer in affected regions of interest (ROI) and in the pons as: Residence time=[1/clearance rate for affected ROI]−[1/clearance rate for pons] Separate ROIs were defined in entorhinal cortex, hippocampus, lateral temporal cortex and pons. The region with the slowest clearance rate was used as the affected ROI in the calculation of the residence time shown in FIG. 4.

[6] = AD brain specimens pretreated with 40 μM agent for 60 min
[7] = AD brain specimens pretreated with 100 nM agent for 60 min
[8] = cortex of the brain of an Alzheimer's disease patient, FIG. 1B

## CN(C)/C=C/C(=C(C#N)C#N)c1ccc2cc(N(C)C)ccc2c1
other
  melting point: 213 to 215 °C

## CN(C)c1ccc2cc(-c3ccnc(Cl)c3C#N)ccc2c1
other
  melting point: 198 to 200 °C

## CN(C)c1ccc2cc(-c3ccnc(N)c3C#N)ccc2c1.O
other
  melting point: 256 to 257 °C

## COc1nccc(-c2ccc3cc(N(C)C)ccc3c2)c1C#N
other
  melting point: 150 to 151 °C

## CN(C)c1ccc2cc(C(/C=C\NCCO)=C(C#N)C#N)ccc2c1
other
  melting point: 168 to 170 °C

## CN(C)c1ccc2cc(-c3ccnc(SCCO)c3C#N)ccc2c1
other
  melting point: 210 to 212 °C

## CN(C)c1ccc2cc(-c3ccn4ccnc4c3C#N)ccc2c1
other
  melting point: 268 to 269 °C

## CC(C)Cc1ccc([C@@H](C)C(=O)O)cc1 [(R)-ibuprofen]
β-amyloid (1-40) fibrils
  Ki: 44.4 ± 17.4 µM
Senile plaques; [6]
  specific binding of [18F]FDDNP to regions of gray matter with senile plaques: significantly reduced

## CC(C)Cc1ccc([C@H](C)C(=O)O)cc1 [(S)-ibuprofen]
β-amyloid (1-40) fibrils
  Ki: 11.3 ± 5.2 µM
Senile plaques; [6]
  specific binding of [18F]FDDNP to regions of gray matter with senile plaques: significantly reduced

## COc1ccc2cc([C@H](C)C(=O)O)ccc2c1 [(S)-naproxen]
β-amyloid (1-40) fibrils
  Ki: 0.0057 ± 0.00131 µM
Senile plaques; [7]
  specific binding of [18F]FDDNP to regions of gray matter with senile plaques: significantly reduced

## Nc1c(/N=N/c2ccc(-c3ccc(/N=N/c4cc(S(=O)(=O)O)c5ccccc5c4N)cc3)cc2)cc(S(=O)(=O)O)c2ccccc12 [CR, Congo red]
β-amyloid (1-40) fibrils
  dose dependent decrease in the specific binding of [18F]FDDNP: did not exhibit a dose dependent decrease
Senile plaques; [6]
  specific binding of [18F]FDDNP to regions of gray matter with senile plaques: minimal effect

## O=C(O)c1cc(/N=N/c2ccc(-c3ccc(/N=N/c4ccc(O)c(C(=O)O)c4)cc3)cc2)ccc1O [Chrysamine G]
Amyloid plaques
  ability to label amyloid plaques in Alzheimer's brain: appears weak

## CC(=C(C#N)C#N)c1ccc2cc(N(C)C)ccc2c1 [DDNP, 2-(1,1-dicyanopropen-2-yl)-6-dimethylaminonaphthalene]
[1]
  visualization of neurofibrillary tangles, amyloid peptides, and diffuse amyloid: excellent visualization
[2]
  passage of the blood brain barrier: passes the blood brain barrier
[3]
  stability of stock solution: can be kept in the freezer for six months and still produce acceptable results
[4]; [8]
  labeling of plaques: strong
  labeling of tangles: weak
[4]; fluorescence microscopy
  labeling of amyloid deposits in cryostat and paraffin sections of AD brain tissue: readily labeled amyloid deposits
other
  melting point: 154.5 to 155 °C

## O=C(O)Cc1ccccc1Nc1c(Cl)cccc1Cl [Diclofenac, diclofenac]
β-amyloid (1-40) fibrils
  dose dependent decrease in the specific binding of [18F]FDDNP: did not exhibit a dose dependent decrease
Senile plaques; [6]
  specific binding of [18F]FDDNP to regions of gray matter with senile plaques: minimal effect

## CC(=C(C#N)C#N)c1ccc2cc(N(C)CCF)ccc2c1 [FDDNP]
Senile plaques; [7]
  specific binding of [18F]FDDNP to regions of gray matter with senile plaques: significantly reduced

## Cc1ccc2c(c1)sc(-c1ccc(N(C)C)cc1)[n+]2C.[Cl-] [TT, Thioflavine T]
β-amyloid (1-40) fibrils
  dose dependent decrease in the specific binding of [18F]FDDNP: did not exhibit a dose dependent decrease
Senile plaques; [6]
  specific binding of [18F]FDDNP to regions of gray matter with senile plaques: minimal effect

## CC(=C(C#N)C#N)c1ccc2cc(N(C)CC[18F])ccc2c1 [[F-18]FDDNP]
[1]
  visualization of neurofibrillary tangles, amyloid peptides, and diffuse amyloid: excellent visualization
[5]; Alzheimer's diseased patients versus control patients, FIG. 4
  estimated residence time (in reference to pons): different from values in control patients
[5]; brain areas known to accumulate β-amyloid plaques and neurofibrillary tangles
  regional clearance from brain: slower clearance
[5]; human, intravenous injection
  crossing of the blood brain barrier: crosses the blood brain barrier readily in proportion to blood flow

— US20070053831A1, “Methods for binding agents to b-amyloid plaques” (priority 2003, published 2007)
